According to patent EP0368175A1, “3S,7S-3-(Morpholinocarbonyl)-5-(2-chlorphenyl)-7,10-dimethyl-3,4-dihydro-2H,7H-cyclopenta[4,5]thieno[3,2-f][1,2,4]triazolo[4,3-a][1,4]diazepine” (BOEHRINGER INGELHEIM KG, priority 1988, dated 1990):
Read-outs that look alike come from different tables or passages of the source.

Biological target: T1, PAF-Rezeptor (Homo sapiens, UniProt P25105)
T1 construct: endogenous in cells; host or cells: intact human platelets from blood of healthy donors, purified on Sepharose CL-2B
Assay: [^3H]PAF receptor binding on vital human platelets
Method: [^3H]PAF-Rezeptor-Bindung an vitalen humanen Blutplättchen
Bestimmt wird die konkurrierende Wechselwirkung von Prüfsubstanzen (hier PAF-Antagonisten) mit der bekannten Wechselwirkung des Radioliganden [^3H]PAF zum gleichen Rezeptor.
Die Bindungsstudien wurden an vitalem menschlichen Thrombozyten vorgenommen. Blutproben von gesunden Spendern wurden mit ACD-Puffer verdünnt und zentrifugiert (15 Min., 160 x g). Das blättchenreiche Plasma wird durch Chromatographie an Sepharose CL-2B [Zum Eluieren: HEPES-Puffer, pH 7,4 20° C] gereinigt.
Definierte Mengen [z.B. 800 µl] der Blättchensuspension wurden 90 Min. bei Raumtemperatur inkubiert, d.h. vermischt mit: • a) einer […] [^3H]PAF-Lösung, verdünnt mit Puffer. • b) mit einer 30 p molaren [^3H] PAF-Lösung, die gleichzeitig eine u.-molare (nicht markierte) PAF-Lösung enthält, • c) mit der 30 pmolaren [^3H]PAF-Lösung und den Lösungen der Prüfsubstanzen (unterschiedliche Konzentrationen) • a) Dient zur Ermittlung der totalen Bindung, • b) Dient zur Ermittlung der unspezifischen Bindung.
Die Reaktion wurde durch Vakuumfiltration abgestoppt. Die Filter mit den Blutplättchen werden mit Scintilationsflüssigkeit versetzt und die verbliebene Radioaktivität in einem Counter gemessen. Die spezifische Bindung ergibt sich aus totaler Bindung minus unspezifischer Bindung. Man bestimmt entweder die ICso-Werte (d.h. jene Konzentration der Prüfsubstanz, die 50 % des Radioliganden - hier [^3H] PAF - vom Rezeptor verdrängt), und gibt diese an. Oder errechnet hieraus die Ki-Werte. Dies kann computerunterstützt durch ein Iterationsverfahren der Bindungskurven geschehen. ICso- bzw. Ki-Werte sind ein Maß für die Rezeptoraffinität der Testsubstanz. Kleinere Werte zeigen die höhere Affinität an.

[1] = four separated isomers of Example 9d, read-out: [^3H]PAF-Bindung (Ki)

T1 sequence (P25105 whole entry): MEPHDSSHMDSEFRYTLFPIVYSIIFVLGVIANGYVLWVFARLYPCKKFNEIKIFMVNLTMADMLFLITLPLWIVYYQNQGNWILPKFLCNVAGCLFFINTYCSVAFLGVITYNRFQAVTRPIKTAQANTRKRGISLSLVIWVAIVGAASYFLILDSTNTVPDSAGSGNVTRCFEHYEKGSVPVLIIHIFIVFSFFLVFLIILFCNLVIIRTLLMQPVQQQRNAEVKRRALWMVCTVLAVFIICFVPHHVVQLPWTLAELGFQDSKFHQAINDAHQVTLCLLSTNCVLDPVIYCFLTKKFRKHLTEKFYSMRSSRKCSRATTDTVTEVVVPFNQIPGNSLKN

| Compound | Ki [1] | also measured |
| --- | --- | --- |
| Cc1nnc2n1-c1sc3c(c1C(c1ccccc1Cl)=NC2C)CC(C(=O)N1CCOCC1)C3 (single isomer, unassigned; (+)) [(+) 9dB] | 3 µM | – |
| Cc1nnc2n1-c1sc(CCC(=O)N3CCOCC3)cc1C(c1ccccc1Cl)=NC2C (racemic) [Beispiel 1, 2-(Morpholinylcarbonylethyl)-4-(2-chlorphenyl)-6,9-dimethyl-6H-thieno(3,2-f][1,2,4]triazolo[4,3-a][1,4]diazepin] | – | Ki (not stated whether IC50 or Ki, read-out: Affinität zum PAF-Rezeptor): 0.016 µM |
| Cc1nnc2n1-c1sc3c(c1C(c1ccccc1Cl)=NC2C)CC(C(=O)N1CCOCC1)C3 (stereo not shown) [Beispiel 9d] | – | Ki (33 : 67 mixture of diastereomers, read-out: [^3H]PAF-Bindung: K): 0.083 µM |
| 3-(Morpholinocarbonyl)-5-(2-chlorphenyl)-7,10-dimethyl-3,4-dihydro-2H,7H-cyclopenta[4,5,thieno-[3,2-f]-[1.2.4]triazolo[4.3-a] [1,4]diazepin [(-) 9dB] | 0.008 µM | – |
| Cc1nnc2n1-c1sc3c(c1C(c1ccccc1Cl)=NC2C)CC(C(=O)N1CCOCC1)C3 (single isomer, unassigned; (-)) [(-) 9dA] | 0.07 µM | – |
| Cc1nnc2n1-c1sc3c(c1C(c1ccccc1Cl)=NC2C)CC(C(=O)N1CCOCC1)C3 (single isomer, unassigned; (+)) [(+) 9dA] | 0.4 µM | – |
| Cc1nnc2n1-c1sc(CCC(=O)N3CCOCC3)cc1C(c1ccccc1Cl)=NC2C (single isomer, unassigned) [IB, 2-(Morpholinylcarbonylethyl)-4-(2-chlorphenyl)-6,9-dimethyl-6H-thieno(3,2-f][1,2,4]triazolo[4,3-a][1,4]diazepin] | – | bindet stärker an den PAF-Rezeptor als die (+)-Form (1A) (ratio of binding, (-)-form versus (+)-form of Example 1): 35 mal |
